Where a name gives a salt, the structure may show the parent alone.
Key:
[1] = Bioavailability pharmacokinetic study, single oral gavage dose in rats; format: in vivo, Sprague-Dawley rats; conditions: for maximum concentrations (Cmax) of T (medians): both, Sprague-Dawley
Procedure: A study was conducted to evaluate the bioavailability of tizoxanide (T) and tizoxanide glucuronide (TG) in plasma following oral administration of a single dose of 90 mg/kg RM-5071, RM-5072 and nitazoxanide by oral gavage to four male and four female Sprague-Dawley rats. Plasma samples were collected at 0.083, 0.167, 0.25, 0.5 1, 2, 6, 12 and 24-hours post-dose. Concentrations of T and TG were determined using mass spectrometry. […] These compounds are rapidly absorbed achieving Cmax within 5 minutes after an oral dose.
Animals and treatment. Three groups of four male and four female Sprague-Dawley rats were administered RM-5071, RM-5072 or NTZ as a single oral gavage dose as detailed in the table below:
Nine serial blood samples were obtained from each animal at 0.083, 0.167, 0.25, 0.5 1, 2, 6, 12 and 24-hours post-dose. Derived plasma samples were stored in sodium heparinized tubes at −70° C. or lower until they were shipped on dry ice via overnight courier for analysis of T and TG concentrations by mass spectrometry.
Because some animals glucurono-conjugate T faster than others, the extent, rate and variability of absorption of these three compounds using the sum of free and glucurono-conjugated T concentrations at each timepoint were evaluated. To arrive at the concentrations of glucurono-conjugated T, TG concentrations were multiplied by 61% (molecular weight of T=270 divided by molecular weight of TG=441).

[2] = physchem; format: physicochemical; conditions: for solubility: thermodynamic from solid
Procedure: The apparent solubility of RM-5071 was tested using several solvents, specifically: DMF, DMSO, acetonitrile (ACN), water, ACN/water mixture, methanol, isopropanol, and ethanol. United States Pharmacopeia (USP) classify the solubility regardless of the solvent used, just following defined criteria summarized in Table 10. The solute was initially dissolved in each of the solvents or solvent system at a lmg/mL concentration. If solute remained undissolved, a fresh solution of lower concentration was subsequently prepared until the solid was observed completely dissolved. This concentration limit was estimated as the apparent solubility.
The solutions of RM-5071 were prepared, dissolving 10 mg in increasing solvent volumes ranging from 10 mL, 100 mL, to 1000 mL in each of the solvents. According to the visual inspection and observations the apparent solubility of RM-5071 was classified according the 10, as defined by the USP.
The solubility studies of RM-5071 were performed in several solvents as specified on Table 11 at room temperature. For the purpose of this chemical characterization report, the terms specified on Table 10 were used to describe the solubility of RM 5071 in different solvents on Table 12

[3] = physchem; format: physicochemical
Excerpt: The appropriate amine is heated with an equimolar amount of either tizoxanide or RM4848 in methanol until a clear solution is obtained. Any small amounts of undissolved solid are removed by filtration. On cooling, the desired salt may crystallize immediately; addition of an equal volume of a solvent, such as diethyl ether (for the tizoxanide salts) or concentration to a small volume, then addition of excess ether (for salts of RM4848), may be used to obtain solid products. In general the salts of RM4848 are more soluble under the above conditions. All the salts are more soluble in water than the parent thiazolides.
The resulting slurry was filtered without issues; the filtration went easy on a glass sintered funnel. The cake was washed with water (3×2 Veq) and methanol (3×2 Veq). Combining the neutralization step and aqueous washings provide that no HCl remains in the cake. Avoiding residual HCl in the product may be important because it could react with ethanolamine during step 2. Washing the cake with methanol allows for the removal of water. […] This way no Tizoxanide is lost during the washing of the cake; nevertheless, the remaining NTZA is not removed either.
RM5071 is not soluble in ethyl acetate, but it tends to form a sticky material. This was also observed during a test reaction in pure ethyl acetate. In addition, it was observed that RM5071 is almost soluble in methanol at a concentration of 5 mg/mL.

[4] = physchem; format: physicochemical; remark: listed apart in the source
Procedure: The acid titration was performed by adding 20 mL of a 1 mg/mL RM-5071 solution poured onto a beaker (titrate), the pH of the solution was measured while using a solution of 0.01N HCl as the titrant. The alkaline titration was performed by adding 20 mL of a 1 mg/mL RM-5071 solution were poured onto a beaker, the pH of the solution was measured while adding a solution 0.02 N NaOH as the titrant. The solutions had agitation with a magnetic stirrer during titration and it was stopped during pH measurements.
The inflection point was calculated using the second derivative of the experimental curve, the volume for the equivalence point is 5.83 mL of 0.01 N HCl, at a pH =5.99. […] The pKa of a phenolic proton is 9.9 as per Vollhardt, K. P. C.; Schore, N. E., Organic Chemistry; Palgrave Version: Structure and Function. Macmillan International Higher Education: 2014.

[5] = Thermogravimetric analysis (TGA); format: physicochemical
Excerpt: Thermogravimetric analysis (TGA) is an analytical technique used to determine the thermal stability of a material and its fraction of volatile components by monitoring the weight change that occurs as a substance is heated. As many weight loss curves look similar, the curves may require transformation before results may be interpreted. A derivative weight loss curve can be used to tell the point at which weight loss is most apparent. The analysis is normally carried out in air or in an inert atmosphere such as nitrogen.
For the TGA analysis, amounts between 2.0 to 2.6 mg of both RM-5071 and desacetyl-NTZA samples were placed individually in platinum pans. The temperature method was: step 1: equilibrate at 25° C., step 2: heat from 25° C. to 700° C. at 10.00° C./min, step 3: hold for 5 min at 700° C. The analyses were carried out under nitrogen.

[6] = Differential scanning calorimetry (DSC); format: physicochemical; conditions: 10 °C/min under nitrogen; irreversible for RM-5071
Procedure: Differential scanning calorimetry (DSC) is a thermo-analytical technique in which the difference in the amount of heat required to increase the temperature of a sample versus a reference are measured as a function of temperature. The reference sample should have a well-defined heat capacity over the range of temperatures to be scanned. One application of DSC is studying phase transitions, such as melting, glass transitions, and/or exothermic decompositions. Such measurements provide qualitative and quantitative information about physical and chemical changes of a molecule.
The calorimetric analysis was performed by the MCC. For the DSC analysis, amounts between 2.34 to 2.46 mg of the samples RM-5071 and desacetyl-NTZA were placed individually in aluminum hermetic pans and covered with an aluminum lid. The temperature method was: step 1: hold for 10 min at 25° C., and step 2: heat from 25° C. to 400 at 10.00 ° C./min. An additional DSC experiment was performed to determine further crystallinity behavior by performing a heat-cool-heat cycling experiment to RM-5071. Approximately 1.69 mg of the RM-5071sample was placed in an aluminum hermetic pan and covered with an aluminum lid. […]

[7] = XRD temperature test (oven heating, then XRD); format: physicochemical
Procedure: A temperature test was performed in order to determine if any physical and crystallinity changes occurred to the sample RM-5071 upon heating.In order to assess if any change occurred two set of experiments were performed as follows: Experiment A- Two petri dishes were identified as “Fast” and “Slow”. To each petri dish, approximately 2 spatulas of sample RM-5071 were added. Then, the oven was turned on and set to a temperature of-160-165° C. After reaching the temperature, the petri dishes were placed in the oven for 15 minutes. Once the time was completed, the oven was turned off and the “Fast” sample was removed and left to reach room temperature (RT) in the hood. The “Slow” sample was left in the oven to reach RT in a slower manner. The “Slow” sample was removed from the oven, once it reached RT. The samples were analyzed by XRD. Experiment B- The procedure described above was followed at a temperature range of ˜110-120° C. After reaching the temperature, the petri dishes were placed in the oven during 10 minutes. The removal of samples from the oven was followed as previosly described. Afterwards, the samples were analyzed by XRD.

[8] = in vivo; cited from earlier work
[9] = single 90 mg/kg oral gavage, 4 male and 4 female rats per group
[10] = single 90 mg/kg oral gavage, rats

O=C(Nc1ncc([N+](=O)[O-])s1)c1ccccc1O [RM-5071, 2-Hydroxybenzoyl-N-[(5-Nitro)Thiazol-2-yl]Amide, Ethanolamine Salt]
maximum concentrations (Cmax) of T (medians) ([1]; rat, in vivo, po, 90 mg/kg): 4700 ng/mL | bioavailability in terms of the maximum concentration compared to NTZA ([1]; rat, in vivo): more bioavailable | mean AUC0-12h relative to NTZ ([1]; rat, in vivo): roughly the same | mean AUC0-12h relative to RM-5072 ([1]; rat, in vivo): almost double | adverse clinical signs [1, 9]: No adverse clinical signs were observed | plasma concentrations of T and TG (free and glucurono-conjugated T) compared to RM-5072 or NTZ [1, 10]: higher | speed of availability of T in plasma compared to NTZ [1, 10]: dramatically improve | variability of absorption compared to RM-5072 or NTZ [1, 10]: less variability | Apparent solubility [2]: very soluble | solubility ([2]; aqueous with cosolvent or surfactant or cyclodextrin, Apparent Solubility of RM-5071): > 1000 µg/mL | solubility ([2]; aqueous with cosolvent or surfactant or cyclodextrin, Apparent Solubility of RM-5071 (concentration limit)): > 1000 µg/mL | solubility ([2]; organic solvent or mixture, Apparent Solubility of RM-5071 (concentration limit)): 33 µg/mL | solubility ([2]; water, Apparent Solubility of RM-5071 (concentration limit)): < 5 µg/mL | solubility in ethyl acetate [3]: not soluble | solubility ([3]; organic solvent or mixture): ~5000 µg/mL | pKa [4]: 8.8 | pH of solution ([4]; 1 mg/mL RM-5071 solution, initial): 9.44 | pH at which full dissolution of the solid is achieved ([4]; 1 mg/mL, titration with NaOH): 10.63 | First step Temperature (° C.) ([5]; 10 °C/min under nitrogen): 85-160 °C | Second step Temperature(° C.) ([5]; 10 °C/min under nitrogen): 160-254 °C | Second step Weight loss (%) ([5]; 10 °C/min under nitrogen): 30.93% | Third step Temperature(° C.) ([5]; 10 °C/min under nitrogen): 254-700 °C | Third step Weight loss (%) ([5]; 10 °C/min under nitrogen): 26.62% | total weight loss ([5]; 25 to 700 °C under nitrogen): 77% | DSC peak transition temperature (exothermic; solid stable up to) [6]: 163 °C | physical and crystallinity changes upon heating ([7]; Experiment A: 160-165° C., 15 minutes): changed from bright yellow to a black powder with beige portions | physical and crystallinity changes upon heating ([7]; Experiment B: 110-120° C., 10 minutes): does not change significantly

O=C(Nc1ncc([N+](=O)[O-])s1)c1ccccc1O [Desacetyl-NTZA, 2-Hydroxybenzoyl-N-[(5-nitro)thiazol-2-yl]amide]
solubility in methanol [3]: fairly insoluble | solubility in water [3]: fairly insoluble

O=C(Nc1ncc([N+](=O)[O-])s1)c1ccccc1O [RM-5072, 2-Hydroxybenzoyl-N-[(5-Nitro)Thiazol-2-yl]Amide, Morpholine Salt]
maximum concentrations (Cmax) of T (medians) ([1]; rat, in vivo, po, 90 mg/kg): 3100 ng/mL | adverse clinical signs [1, 9]: No adverse clinical signs were observed | speed of availability of T in plasma compared to NTZ [1, 10]: dramatically improve

CC(=O)Oc1ccccc1C(=O)Nc1ncc([N+](=O)[O-])s1 [NTZ, 2-(acetolyloxy)-N-(5-nitro-2-thiazolyl) benzamide, reference compound]
maximum concentrations (Cmax) of T (medians) ([1]; rat, in vivo, po, 90 mg/kg): 1700 ng/mL | adverse clinical signs ([1]; rat, in vivo, po, 90 mg/kg): No adverse clinical signs were observed | time at which Cmax of T was achieved ([1]; rat, in vivo, po, 90 mg/kg): 2 h | solubility in methanol [3]: fairly insoluble | solubility in water [3]: fairly insoluble | plasma half-life [8]: 1.3 h
